Measurements: patent US20160338971A1, “NANO CO-ENCAPSULATION FOR THE PREVENTION AND TREATMENT OF VARIOUS DISORDERS” (priority 2015, published 2016)

Test system: Human Pancreatic cancer cells (MPanc)
Test: Anti-cancer efficacy in athymic nude mice (subcutaneous pancreatic tumor implant)
Format: in vivo
Conditions: 10 ug/implant in Matrigel near the tumor implant, tumors excised after 2 weeks, n=6 per group, Control 291 ± 25
Source text: Human Pancreatic cancer cells (MPanc) were implanted subcutaneously in nude mice at 1 million cells per site and after tumor growth to 150-200 mm3, animals were implanted with the various Nano composites near by the tumor implant.
The preceding data represents mean tumor weight±Standard Deviation (SD), n=6 per group, after 2 weeks of pancreatic cancer cell implant at 1 million per animals. Nano composites were implanted in a Matrigel near by the tumor implants

Row | Compound | Mean Pancreatic Tumor Weight (mg) ± SD [mg]
1 | O=C1O[C@H]2[C@@H]3OC(=O)c4cc(O)c(O)c(O)c4-c4c(O)c(O)c5oc(=O)c6c(c(O)c(O)c7oc(=O)c4c5c76)-c4c(cc(O)c(O)c4O)C(=O)OC[C@H]3OC(O)[C@@H]2OC(=O)c2cc(O)c(O)c(O)c2-c2c1cc(O)c(O)c2O (mixture of isomers) [Punicalagin] | 146.44 ± 16.4
2 | Oc1ccc(C=Cc2cc(O)cc(O)c2)cc1 [Resveratrol] | 198.44 ± 18.9
3 | C[S+]([O-])CCCCN=C=S (centres unmarked) [Sulforaphan] | 195.80 ± 21.2
4 | epigallocatechin-3-gallate [EGCG] | 145.11 ± 17.8
5 | C=CCSSC=CC[S+]([O-])CC=C (mixture of isomers) [Ajoene] | 188.45 ± 15.6
